The record followed here is ChEMBL document CHEMBL3865844, “Synthesis of 3,5-dihydroxy-7,8-dimethoxy-2-(4-methoxyphenyl)benzopyran-4-one derivatives as anticancer agents” (Bioorg Med Chem Lett, 2016).

pEC50, pIC50: −log10 of the molar value. The source made the active and inactive calls. No cut-off for these calls is given here.

Data set [1] in a line: Anticancer activity against human ER-positive MCF7 cells measured after 48 hrs by SRB assay. It counts as functional, cell-based. The conditions noted are these: MCF7, 48 h. On the technique in general: Sulforhodamine B stains cellular protein and so reports cell mass.
Data set [2] can be described thus: Anticancer activity against human DLD1 cells measured after 48 hrs by SRB assay. It is filed as functional, cell-based. Conditions: DLD-1, 48 h.
Data set [3] in a line: Anticancer activity against human A549 cells measured after 48 hrs by SRB assay. It is filed as functional, cell-based. Conditions: A549, 48 h.
Data set [4] can be described thus: Anticancer activity against human DU145 cells measured after 48 hrs by SRB assay. It counts as functional, cell-based. The conditions noted are these: DU-145, 48 h.
The nature of data set [5]: Anticancer activity against human FADU cells measured after 48 hrs by SRB assay. It is filed as functional, cell-based.
A short description of data set [6]: Cytotoxicity against human THP1 cells by MTT assay. It counts as toxicity, cell-based, THP-1. Background: Tetrazolium dyes change colour on reduction, which living cells bring about.
The nature of data set [7]: Inhibition of tubulin depolymerization (unknown origin) measured up to 60 mins. Details: species or system Homo sapiens.
Data set [8] can be described thus: Cell cycle arrest in human ER-positive MCF7 cells assessed as accumulation at sub-G0 phase at 7.2 and 14.93 uM by propidium iodide staining based flow cytometry relative to vehicle control. It counts as functional. Conditions: TDE = time-dependent effect.
A short description of data set [9]: Cell cycle arrest in human ER-positive MCF7 cells assessed as accumulation at G2M phase at 7.2 and 14.93 uM by propidium iodide staining based flow cytometry relative to vehicle control. It is filed as functional. The conditions noted are these: TDE = time-dependent effect. On the technique in general: In flow cytometry, cells or beads pass a laser one at a time.

A short description of data set [10]: Cell cycle arrest in human ER-positive MCF7 cells assessed as decrease in S-phase cell population at 7.2 and 14.93 uM after 24 hrs by propidium iodide staining based flow cytometry relative to vehicle control. It counts as functional.
The subject of a further data set is MCF7. Briefly: Induction of apoptosis in human ER-positive MCF7 cells assessed as PARP cleavage at 2.5 to 10 uM by Western blot analysis. The conditions noted are these: TDE = time-dependent effect. It counts as functional, cell-based.

In general, pIC50 refers to −log10 of the IC50, conventionally taken in molar units. A low value points to a high IC50. For orientation: CC50 means the concentration at which the toxic effect on the cells reaches its halfway point. For orientation: pEC50 means the negative decadic logarithm of the EC50, by convention in mol/L. A higher pEC50 goes with a small EC50.

Consider `CCCCCN(C)C(=O)CCCCCOc1cc(OC)c(OC)c2oc(-c3ccc(OC)cc3)c(O)c(=O)c12`, for which the pIC50 in data set [1] is 4.46; in [2], 4.71; in [3], 4.77; in data set [4], 4.65; in [5], less than 4.40. The same molecule showed a CC50 in data set [6] of 200 µM.
Turning to `COc1ccc(-c2oc3c(OC)c(OC)cc(OCCN4CCCCC4)c3c(=O)c2O)cc1`, the pIC50 in [1] was 4.93; in data set [2], 5.34; in data set [3], 4.99; in data set [4], 5.18; in [5], 5.00. This molecule had a CC50 in data set [6] of 100 µM.
Turning to `COc1ccc(-c2oc3c(OC)c(OC)cc(OCCCCCC(=O)NCCc4ccccn4)c3c(=O)c2O)cc1`, the pIC50 in data set [1], in [2], in data set [3], in [4] and in data set [5] was less than 4.40 in each case.
As for `CCCCN(C)C(=O)CCCOc1cc(OC)c(OC)c2oc(-c3ccc(OC)cc3)c(O)c(=O)c12`, the pIC50 in data set [1], in data set [2], in data set [3], in data set [4] and in [5] was less than 4.40 throughout. In data set [7], this molecule had a pEC50 of 5.47.
Consider `COc1ccc(-c2oc3c(OC)c(OC)cc(OCCN(C)C)c3c(=O)c2O)cc1`, for which the pIC50 in data set [1] is 4.89; in data set [2] it was 5.35; in data set [3], 5.14; in data set [4] it was 5.22; in data set [5], 4.96. The molecule further had a CC50 in data set [6] of 200 µM.
For `COc1ccc(-c2oc3c(OC)c(OC)cc(OCCN4CCCC4)c3c(=O)c2O)cc1`, the pIC50 was 4.83 in data set [1]; 4.76 in data set [2]; 4.95 in [3]; 5.15 in [4]; 5.01 in [5]. Moreover, the CC50 in [6] was determined as 100 µM.
On to `COc1ccc(-c2oc3c(OC)c(OC)cc(OCCCCCC(=O)NCc4ccccn4)c3c(=O)c2O)cc1`, for which the pIC50 in [1], in data set [2], in [3], in data set [4] and in data set [5] was less than 4.40 each time.
In data set [7], `CC(=O)O[C@H]1C(=O)[C@@]2(C)[C@H]([C@H](OC(=O)c3ccccc3)[C@]3(O)C[C@H](OC(=O)[C@H](O)[C@@H](NC(=O)c4ccccc4)c4ccccc4)C(C)=C1C3(C)C)[C@]1(OC(C)=O)CO[C@@H]1C[C@@H]2O` [PACLITAXEL] gave a pEC50 of 6.01.
In the case of `COc1ccc(-c2oc3c(OC)c(OC)cc(OCCCC(=O)NCCc4ccccn4)c3c(=O)c2O)cc1`, the pIC50 in data set [1], in data set [2], in data set [3], in data set [4] and in [5] was less than 4.40 throughout.
For the molecule `COc1ccc(-c2oc3c(OC)c(OC)cc(OC(C)CN(C)C)c3c(=O)c2O)cc1` (stereo unspecified), the pIC50 in data set [1] was 5.14; in data set [2] it was 5.59; in data set [3] it was 5.21; in data set [4] it was 5.36; in data set [5], 5.27. For the same molecule, the pEC50 in [7] was 4.60. Further, the Activity entry (in data set [8]; in data set [9]; in the data set on MCF7) was “Tde” in each case. Besides, the result in data set [10] was Active. The same molecule had a CC50 in data set [6] of 100 µM.
For `COc1ccc(-c2oc3c(OC)c(OC)cc(OCCCC(=O)N4CCN(C)CC4)c3c(=O)c2O)cc1`, the pIC50 in data set [1], in [2], in data set [3], in data set [4] and in data set [5] was less than 4.40 throughout.
Consider `CCCCN(C)C(=O)CCCCOc1cc(OC)c(OC)c2oc(-c3ccc(OC)cc3)c(O)c(=O)c12`, for which the pIC50 in data set [1] was 4.65; in data set [2], 4.76; in data set [3], 4.78; in [4], 4.97; in data set [5], 4.66. In [6], the CC50 stood at 200 µM.
Take `COc1ccc(-c2oc3c(OC)c(OC)cc(OCCCCC(=O)NCCc4ccccn4)c3c(=O)c2O)cc1`: the pIC50 in data set [1], in data set [2], in [3], in [4] and in data set [5] was less than 4.40 each time.
For `COc1ccc(-c2oc3c(OC)c(OC)cc(OCCCCC(=O)NCc4ccccn4)c3c(=O)c2O)cc1`, the pIC50 in data set [1], in [2], in [3], in data set [4] and in [5] was less than 4.40 each time.
With `COc1ccc(-c2oc3c(OC)c(OC)cc(OCCCCCC(=O)N4CCN(C)CC4)c3c(=O)c2O)cc1`, the pIC50 in data set [1] was 4.85; in data set [2] it was 4.86; in [3], 4.83; in data set [4], 4.88; in data set [5], 4.80. In [7], this molecule gave a pEC50 of 5.28. This molecule also displayed a CC50 in data set [6] of 50 µM.
Take `CC/C(=C(\c1ccccc1)c1ccc(OCCN(C)C)cc1)c1ccccc1` [TAMOXIFEN]: the pIC50 in data set [1] is 4.74; in data set [2] it was 4.96; in data set [3], 4.76; in data set [4], 4.74; in [5], 5.27.
Take `CCN(CC)CCOc1cc(OC)c(OC)c2oc(-c3ccc(OC)cc3)c(O)c(=O)c12`: the pIC50 in [1] was 4.60; in data set [2], 5.11; in data set [3], 4.86; in data set [4], 4.95; in data set [5], 4.89. In [6], this molecule showed a CC50 of 200 µM.
With `COc1ccc(-c2oc3c(OC)c(OC)cc(OCCCC(=O)NCc4ccccn4)c3c(=O)c2O)cc1`, the pIC50 in data set [1], in data set [2], in [3], in data set [4] and in data set [5] was less than 4.40 in each case.
Regarding `COc1ccc(-c2oc3c(OC)c(OC)cc(OCCCCC(=O)N4CCN(C)CC4)c3c(=O)c2O)cc1`, the pIC50 in data set [1], in data set [2], in data set [3], in data set [4] and in data set [5] was less than 4.40 in each case.
